Assay results reported in patent US20060122232A1, “4-Hydroxyfuroic acid derivatives” (DEVELOPMENT CENTER FOR BIOTECHNOLOGY, priority 2004, published 2006).

The compounds below were run against T1, human insulin receptor (CHO.IR cells) (Homo sapiens, UniProt P06213) (assay: Cell-based assay for insulin receptor tyrosine kinase activity). Conditions: 20 min; CHO.IR cells treated with 100 μM of compound; read-out: reduction in tyrosine kinase activity.
T1 construct: host or cells: CHO.IR cells (CHO)
T1 sequence (P06213 28-758 limits assumed): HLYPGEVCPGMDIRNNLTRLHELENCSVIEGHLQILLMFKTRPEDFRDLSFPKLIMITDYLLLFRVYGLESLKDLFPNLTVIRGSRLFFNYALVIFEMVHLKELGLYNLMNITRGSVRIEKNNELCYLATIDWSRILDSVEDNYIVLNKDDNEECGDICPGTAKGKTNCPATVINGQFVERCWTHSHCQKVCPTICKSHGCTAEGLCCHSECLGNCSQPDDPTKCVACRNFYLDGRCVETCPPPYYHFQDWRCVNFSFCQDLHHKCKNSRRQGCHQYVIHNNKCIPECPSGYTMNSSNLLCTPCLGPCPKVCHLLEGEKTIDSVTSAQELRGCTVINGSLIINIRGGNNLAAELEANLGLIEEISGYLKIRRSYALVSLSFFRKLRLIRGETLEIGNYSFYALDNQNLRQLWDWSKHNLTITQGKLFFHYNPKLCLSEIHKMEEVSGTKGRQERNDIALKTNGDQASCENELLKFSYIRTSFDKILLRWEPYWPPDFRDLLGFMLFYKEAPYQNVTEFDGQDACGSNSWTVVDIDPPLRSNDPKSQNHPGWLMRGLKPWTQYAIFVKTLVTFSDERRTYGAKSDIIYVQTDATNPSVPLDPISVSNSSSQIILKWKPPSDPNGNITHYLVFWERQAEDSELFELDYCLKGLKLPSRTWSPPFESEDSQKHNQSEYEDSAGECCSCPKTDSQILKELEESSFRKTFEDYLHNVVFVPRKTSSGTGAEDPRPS
T1 sequence (P06213 763-1382 limits assumed): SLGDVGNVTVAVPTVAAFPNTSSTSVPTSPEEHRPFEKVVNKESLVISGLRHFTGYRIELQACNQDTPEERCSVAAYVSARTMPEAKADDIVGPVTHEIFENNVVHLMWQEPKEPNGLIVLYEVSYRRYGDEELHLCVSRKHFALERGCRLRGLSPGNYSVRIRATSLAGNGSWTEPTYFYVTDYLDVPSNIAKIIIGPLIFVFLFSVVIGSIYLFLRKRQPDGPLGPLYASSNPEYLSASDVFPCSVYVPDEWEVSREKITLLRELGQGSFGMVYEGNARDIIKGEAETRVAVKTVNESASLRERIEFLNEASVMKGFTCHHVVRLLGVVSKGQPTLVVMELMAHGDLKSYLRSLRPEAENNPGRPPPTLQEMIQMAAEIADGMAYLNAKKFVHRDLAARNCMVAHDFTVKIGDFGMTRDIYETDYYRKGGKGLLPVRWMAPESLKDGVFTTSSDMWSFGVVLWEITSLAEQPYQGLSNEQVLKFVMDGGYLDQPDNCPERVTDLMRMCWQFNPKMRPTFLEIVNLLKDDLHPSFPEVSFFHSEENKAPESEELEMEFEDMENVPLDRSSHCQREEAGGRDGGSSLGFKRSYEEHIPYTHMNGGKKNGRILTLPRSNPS
Method: CHO.IR cells overexpressing human insulin receptor were obtained from Stanford University. Approximately 1.5×10^5 cells were seeded in each well of a 96-well plate containing Hams F12 medium plus 10% fetal calf serum, fungizone, penicillin, and streptomycin. The cells were incubated at 37° C. for approximately 24 hours, allowing cells to reach confluency. The cells were then washed with phosphate buffered saline (PBS) three times and then incubated in serum-free medium at 37° C. for 2 hours. Insulin or test compounds were added to the wells and the cells were incubated for an additional 20 minutes at 37° C. The cells were washed with PBS three times and then lysed in 60 μL/well of a lysis buffer containing 50 mM HEPES, pH 7.4, 1% Triton X-100, 5 mM EDTA, 5 mM EGTA, 20 mM sodium pyrophosphate, 1 mM sodium vanadate, 20 mM sodium fluoride, 1 mg/mL Bacitracin, 150 mM sodium chloride, 2 μg/mL Aprotonin, and 1 mM PMSF. Lysates were transferred to a second 96-well plate pre-coated with monoclonal anti-insulin receptor antibody (0.2 μg/50 μL/well, in 20 mM NaHCO3, pH 9.6). The second plate was incubated at 4° C. for 16 hours to immunoabsorb insulin receptors.
CHO.IR cells were cultured at approximately 1.5×10^5 cells/well (in a 96-well plate) in a Hams F12 medium supplemented with 10% fetal calf serum, fungizone, penicillin, and streptomycin. The cells were incubated at 37° C. for 24 hours, allowing cells to reach confluency. The cells were then washed with PBS three times and then incubated in serum-free medium at 37° C. for 2 hours. Insulin or test compounds were added to the cells and incubated for an additional 20 minutes at 37° C. The cells were washed three times with PBS and lysed in the same 60 μL lysis buffer as mentioned in Example 174. Lysates were transferred to a second 96-well plate pre-coated with monoclonal anti-insulin receptor antibody (under the same conditions as those mentioned in Example 174). Lysates were incubated at 4° C. for 16 hours to immunoabsorb insulin receptors.
20 μL of a kinase reaction mixture (50 mM Hepes, pH 7.6, 150 mM NaCl, 5 mM MgCl2, 5 mM MnCl2, 0.1% Triton x-100, 1 mg/mL poly(Glu:Tyr)(4:1), 2 μCi of carrier-free [γ-^32P]ATP) was added to each well. After reacting at 25° C. for 40 minutes, the reaction mixture was transferred to a Multiscreen pH plate (Millipore, Billerica, Mass.) and unbound ATP was washed away. The insulin receptor tyrosine kinase activity was determined by detecting the radioactivities associated with the wells using a Topcount scintillation counter (Perkin-Elmer, Wellesley, Mass.).

Row | inhibition at 100 µM | Structure (SMILES)
1 | 12 to 53% | O=C(O)c1oc(C(=O)c2c[nH]c3c(CCCO)cccc23)c(O)c1-c1c[nH]c2ccccc12 [Compound 9]
2 | 12 to 53% | O=C(O)CCc1cccc2c(C(=O)c3oc(C(=O)O)c(-c4c[nH]c5ccccc45)c3O)c[nH]c12 [Compound 170]
3 | 12 to 53% | CCCCCc1cccc2c(C(=O)c3oc(C(=O)O)c(-c4c[nH]c5ccccc45)c3O)c[nH]c12 [Compound 171]
4 | 12 to 53% | O=C(O)c1sc(C(=O)c2c[nH]c3c(CCCCCO)cccc23)c(O)c1-c1c[nH]c2ccccc12 [Compound 114]
5 | 12 to 53% | O=C(O)c1oc(C(=O)c2c[nH]c3c(CCCCCO)cccc23)c(O)c1-c1c[nH]c2ccccc12 [Compound 30]
6 | 12 to 53% | O=C(O)c1oc(C(=O)c2c[nH]c3c(CCCC(CO)CO)cccc23)c(O)c1-c1c[nH]c2ccccc12 [Compound 173]
7 | 12 to 53% | O=C(O)c1oc(C(=O)c2c[nH]c3c(CCCCO)cccc23)c(O)c1-c1c[nH]c2ccccc12 [Compound 21]
8 | 12 to 53% | O=C(O)CCCCc1cccc2c(C(=O)c3oc(C(=O)O)c(-c4c[nH]c5ccccc45)c3O)c[nH]c12 [Compound 172]
